The values that follow come from a melting point compilation (Tetko et al.; mined from patent text by program, amines drawn as free bases though some values may be those of a salt).

The term melting point denotes the temperature of the solid-liquid transition. The molecule `CN1CCC(N(C)C(=O)CNS(=O)(=O)c2ccc(Nc3nccc(Nc4ccc(F)cc4)n3)cc2)CC1` showed a melting point of 233 to 234 °C. The molecule `CN(C)c1ccc(C(O)C#Cc2ccncc2)cc1` (stereo unspecified) showed a melting point of 117 °C. On to `O=C(Oc1ccccc1)c1ccc(N(Cc2ccccc2)Cc2ccccc2)cc1Cl`, for which the melting point lay within 133 to 135 °C. To `COc1ccccc1C(C)C(Sc1ccc(C(=O)O)cc1)n1ccnc1` (stereo unspecified) belongs 118 to 124 °C.

The molecule `c1ccc(Oc2ccc3nnn(Cc4ccc5ncccc5c4)c3n2)cc1` returned a melting point of 225 to 227 °C. `CN(C)C(=O)C(C)(C)n1cc(-c2ccccc2)c(-c2ccccc2)n1` gave a melting point of 148 to 150 °C.

`CCc1noc(-c2ccc(O)cc2)n1` came in with a melting point of 138 °C. To `COc1ccc(C(=O)c2ccc(OC)c([N+](=O)[O-])c2)cc1[N+](=O)[O-]` belongs 189 to 190 °C; to `O=C1CC(c2cccc(-n3ccnn3)c2)=Nc2cc(O)c(C#Cc3ccc(F)cc3)cc2N1`, 243 °C. `C[Si](C)(C)CCOCn1c(-c2cnn(-c3c(Cl)cc(C(F)(F)F)cc3Cl)n2)nc([N+](=O)[O-])c1Br` had a melting point of 126 to 128 °C.

`CCc1nc(Cc2ccc(NC(=O)/C=C/c3cnn(C)c3-c3ccc(F)cc3)cc2)no1` displayed a melting point of 150 to 152 °C. Regarding `O=C(O)CN1CC2(CCCCC2)CC1=O`, the melting point lay within 122 to 124 °C. To `Cc1ccc(C)c(C(=O)NC(C)(C)C)c1` belongs 80 to 82 °C. To `Cc1ccc2nc(-c3ccc(C#N)cc3)c(CNC(=O)CC(C)C)n2c1` belongs 231 to 233 °C; to `CCCc1ccc(-c2ccc(-c3cccs3)c(F)c2)cc1`, 88 °C. For the molecule `CN1CC(CO)C(c2ccccc2)(c2ccccc2)C1=O` (stereo unspecified), the melting point was in the range of 148 to 150 °C. The value for `Cc1ccc([N+](=O)[O-])c(Oc2cc(C(F)(F)F)nn2C)c1` was 88 to 90 °C; that for `Oc1cc2cc(C3CCCCC3)sc2c(Cl)c1Cl` was 59 to 60 °C.

`O=c1c2cc(Oc3ccc(Cl)cc3)ccc2ncn1Cc1cccnc1` had a melting point of 130 to 133 °C. Consider `CCCC(CCC)C(=O)NC(=O)C(N)c1ccccc1` (stereo unspecified), for which the melting point lay within 190 to 191 °C. To `Cc1ccccc1C(=O)Nc1ccc(C(=O)N2Cc3cccn3Cc3sccc32)cc1` belongs 162 to 188 °C; to `Brc1ccc(-c2ccc(-c3ccc(Br)cc3)o2)cc1`, 198 to 199 °C.

With `CCOC(=O)c1ccc(/C=C(\C)c2cc3c(cc2OC)C(C)(C)CCC3(C)C)cc1`, the melting point fell in the range of 97 to 98 °C. Consider `COc1cc(OC)c2c(=O)[nH]c(-c3cc(C)cc(OCCO)c3)nc2c1`, for which the melting point lay within 107 to 109 °C. In turn, `CC(C)(C)OC(=O)n1c(C(=O)O)cc2ccccc21` came in with a melting point of 117 °C. The value for `N#Cc1ccccc1Nc1cc2c(cc1Nc1ccccc1C#N)C(=O)NC2=O` was 279 to 280 °C; that for `CCOC(=O)COc1cccc(-c2n[nH]c3c2Cc2ccccc2-3)c1` was 134 to 136 °C; that for `CC(=O)n1ncc2c(OCC3CO3)cc(C)cc21` (stereo unspecified) was 105 to 107 °C.

`Cc1ccc(S(=O)(=O)OCC2Cc3ccccc3C2)cc1`: the melting point was in the range of 95 to 97 °C. In turn, `Nc1nc(NC(=O)c2cccnc2)nc(-c2ccc3ccccc3c2O)n1` returned a melting point of 301 to 302 °C.

`CSc1ncc(Sc2nc(C)c(CC(=O)O)s2)c(C(=O)O)n1` returned a melting point of 238 to 239 °C.

For `CC(C)(C)c1cc(C2=CCSCC2)c(O)c(C(C)(C)C)c1`, the melting point was 115 to 119 °C. As to `CC1CCC(Nc2ccccc2)c2nccc(=O)n21` (stereo unspecified), the melting point lay in the range of 160 to 162 °C. To `Nc1nc2ccccc2c2c1nc1n2C(C2CCOCC2)COC1` (stereo unspecified) belongs 240 to 243 °C; to `OCCN1CCN(c2nn(-c3ccc(C(F)(F)F)cc3)c3ccccc23)CC1`, 82 to 84 °C; to `O=C1c2cccc3cc(F)cc(c23)C(=O)N1O`, 244 to 247 °C.

Molecule `COc1cccc(-c2nc(C)nn2-c2ccc(S(N)(=O)=O)cc2)c1` showed a melting point of 211 to 212 °C. The value for `COc1ccc2sc(Nc3ccc(OCCCl)cc3)nc2c1` was 176 to 178 °C; that for `O=C1c2c(F)c(F)c(F)c(F)c2C(=O)N1c1c[nH]c(=O)[nH]c1=O` was 350 to 355 °C; that for `CC(C)CCNCCOc1ccc2ccccc2c1` was 91 °C. Consider `CN1Cc2c(C(=O)OCC3CC3)ncn2-c2ccc(F)cc2C1=O`, for which the melting point was in the range of 156 to 157 °C. With `Cc1cccc(CCCCCCCCC(=O)NO)c1`, the melting point is 49 to 50 °C. In turn, `OCCNc1cc(Nc2ccc(Oc3ccccc3)cc2)ncn1` displayed a melting point of 154 to 156 °C.

`O=C(O)COc1ccc(CCNS(=O)(=O)c2ccccc2)cc1` registered a melting point of 157 to 158 °C. To `COc1c2ccccc2nc2c1c(C)nn2-c1ccccn1` belongs 44 to 47 °C; to `NC(=S)c1c[nH]cc1-c1cccc(Cl)c1Cl`, 128 to 132 °C; to `COC(=O)CCCOc1cc(C(=O)O)ccc1NC(=O)NC(=O)c1cc(F)c(F)cc1Cl`, 227 °C.

`CCOC(=O)NC(=S)CNc1ccc(C(=O)OC)c(S(=O)(=O)NC(=O)Nc2nc(OC)cc(OC)n2)c1`: the melting point is 144 to 145 °C. The value for `N#CC1(c2ccc(C(=O)c3cccs3)cc2)CC1` was 106 °C; that for `COc1cc(-n2nc(C)n(C(F)F)c2=O)c(F)cc1Cl` was 86 to 88 °C; that for `CC1CCN(C(C#N)C2(c3ccc(Cl)c(Cl)c3)CCC2)CC1` (stereo unspecified) was 76 to 78 °C. Take `CCOC(=O)C1=C(COCc2nnnn2CCN2CCN(C(=O)NC)CC2)NC(C)=C(C(=O)OC)C1c1cccc(Cl)c1Cl` (stereo unspecified): the melting point lay in the range of 95 to 96 °C. The value for `OCCSCc1ccc(-c2ccc(CSCCO)cc2)cc1` was 152 °C; that for `O=C(O)C1(C(=O)O)CC(C2CCC2)C1` was 150 to 151 °C. For the molecule `CC(C)c1cc(Oc2ccc(Cl)cc2)nc(C(C)C)c1N`, the melting point lay within 86 to 88 °C. `COc1cccc(-c2ccc3cc(OC)ccc3c2Oc2ccc(C=O)cc2)c1` gave a melting point of 145 to 146 °C.

As for `CN(C)CC(O)COc1ccccc1CCCCc1ccccc1C(N)=O` (stereo unspecified), the melting point lay within 149 to 151 °C. `Cc1cc(Cn2cccn2)cc2c1Cc1c(-c3ccsc3)n[nH]c1-2` had a melting point of 271 to 274 °C. Molecule `CC1CC(=O)NN=C1c1ccc(N2CCNCC2)c(F)c1` (stereo unspecified) showed a melting point of 172 to 174 °C. Take `C[C@]1(CN2CCN(c3ccc(Cl)cc3)CC2)Cn2cc([N+](=O)[O-])nc2O1`: the melting point is 218 to 220 °C. To `CCCCCCCc1ccc(C(=O)Oc2ccc(C(=O)O)c(Cl)c2)cc1` belongs 108 °C. In the case of `FC(F)(F)C(F)(F)C(F)(F)C(F)(F)C(F)(F)C(F)(F)C(F)(F)C(F)(F)C(F)(F)C(F)(F)C(F)(F)Br`, the melting point lay in the range of 96 to 98 °C. To `CCc1ccnc(C(=O)c2[nH]c3ccc(Cl)cc3c2CC(=O)O)c1Cl` belongs 220 °C; to `CC(C)[Si](OC[C@H]1C(C=O)=Cc2cc3c(cc2[C@@H]1O)OCO3)(C(C)C)C(C)C`, 87 to 89 °C. `C=COCCOc1ccc(C=CC(=O)C=Cc2ccc(OCCOC=C)cc2)cc1` showed a melting point of 124 to 125 °C.

Molecule `CC(C)(CNC=O)c1ccc(N)c([N+](=O)[O-])c1` came in with a melting point of 113 to 115 °C. To `Cc1sc(C)c(CCl)c1CCl` belongs 68 to 70 °C; to `OCc1c[nH]c(=S)n1[C@H]1CCc2cc(Cl)c(Cl)cc2C1`, 247 to 248 °C; to `CCOC(=N)c1ccc(Cl)c(Cl)c1`, 62 to 64 °C.

In the case of `O=c1[nH]c2cc(Cl)ccc2c(=O)n1S(=O)(=O)c1ccc(Cl)cc1`, the melting point fell in the range of 286 to 287 °C. In turn, `COc1ccc2c(O)cccc2c1` showed a melting point of 73 to 75 °C. Molecule `COCc1ncc(Nc2ccc(Cl)cc2)nc1-n1nc(C)cc1C` came in with a melting point of 147 to 151 °C.

Turning to `N#Cc1csc(-c2csc(C(O)(Cn3cncn3)c3ccc(F)cc3F)c2)n1` (stereo unspecified), the melting point was in the range of 172 to 173 °C. The value for `CCOC(=O)CSc1nc(Cl)cc(Nc2c(C)cc(C)cc2C)n1` was 100 to 103 °C; that for `Cc1nn(CCO)c(-c2ccc(F)cc2)c1-c1ccc2c(c1)NC(=O)CO2` was 178 to 179 °C; that for `Nc1c(Nc2ccc(O)cc2)ncnc1-c1ccc(C(F)(F)F)cc1F` was 194 to 196 °C. To `O=C(C1CCCc2c1c1ccccc1n2Cc1ccccc1)N1CCN(c2ccccc2)CC1` (stereo unspecified) belongs 273 to 274 °C.

`CCOCCC(=O)NN` displayed a melting point of 34 °C. Regarding `CC(=O)c1ccc(S(=O)(=O)NC(C)(C)C(=O)O)cc1`, the melting point was in the range of 157 to 158 °C. To `O=C(O)C1(c2ccc(I)cc2)CC1` belongs 150 to 152 °C; to `COC(=O)c1cc(CCC(=O)NCc2ccccc2)ccc1O`, 139 to 140 °C; to `O=C(O)c1ccc(Cn2nnc(-c3cccc(I)c3)n2)cc1`, 241 to 242 °C. To `COCCOCCOc1ccc2c(c1)S(=O)(=O)N(Cc1ccccc1)C2=O` belongs 86 to 88 °C.

As for `COCCNC(=O)c1cccc(-c2cccc3cc(C(O)c4cccc(C(F)(F)F)c4)sc23)c1` (stereo unspecified), the melting point fell in the range of 126 to 127 °C. The value for `CC1(C)Cc2c(c(O)cc3c2C(c2cccc(-c4ccc(NC(=O)OCc5ccccc5)cc4)c2)=NCC3(C)C)O1` was 161 to 165 °C; that for `O=C(O)c1ccc2oc(Cc3cccnc3)cc2c1` was 197 to 198 °C; that for `CC1CCc2c(c3c(O)cc(C(C)CCCc4ccc(F)cc4)cc3oc2=O)C1` (stereo unspecified) was 127 to 129 °C.

On to `CS(=O)(=O)CC(=O)Nc1c(C(=O)c2ccccc2)[nH]c2cc(Cl)ccc12`, for which the melting point was in the range of 217 to 220 °C. To `CCOC(=O)c1cn2c(n1)CN(C(C)=O)CC2` belongs 97 °C. The value for `CCCCNC(=O)NS(=O)(=O)c1ccccc1S(=O)(=O)OCC(F)(F)F` was 140 to 142 °C; that for `CCOC(=O)C1=COc2ccc(O)cc2O1` was 160 °C.
